Experimental data taken from US20250042875A1, “PESTICIDALLY ACTIVE PYRIDAZINONE COMPOUNDS” (SYNGENTA CROP PROTECTION AG, priority 2021, published 2025).

Legend:
Format in all cases: in vivo
Myzus persicae [1] = test: Activity against Myzus persicae (green peach aphid), feeding/contact activity; conditions: 144 h, application rate 200 ppm, 6 days after infestation
Protocol: Example B5: Activity Against Myzus persicae (Green Peach Aphid). Feeding/Contact Activity
Sunflower leaf discs were placed onto agar in a 24-well microtiter plate and sprayed with aqueous test solutions prepared from 10′000 ppm DMSO stock solutions. After drying, the leaf discs were infested with an aphid population of mixed ages. The samples were assessed for mortality 6 days after infestation.

Diabrotica balteata = test: Activity against Diabrotica balteata (corn root worm), maize sprouts, L2 larvae; conditions: 96 h, application rate 200 ppm, 4 days after infestation, read-out: control in at least one of the two categories (mortality or growth inhibition)
Protocol: Example B2: Activity Against Diabrotica Balteata (Corn Root Worm)
Maize sprouts placed onto an agar layer in 24-well microtiter plates were treated with aqueous test solutions prepared from 10′000 ppm DMSO stock solutions by spraying. After drying, the plates were infested with L2 larvae (6 to 10 per well). The samples were assessed for mortality and growth inhibition in comparison to untreated samples 4 days after infestation.

Myzus persicae [2] = test: Activity against Myzus persicae (green peach aphid), intrinsic activity; conditions: 120 h, test rate 12 ppm, 5 days after infestation
Description: Example B6: Activity Against Myzus persicae (Green Peach Aphid). Intrinsic Activity
Test compounds prepared from 10′000 ppm DMSO stock solutions were applied by pipette into 24-well microtiter plates and mixed with sucrose solution. The plates were closed with a stretched Parafilm. A plastic stencil with 24 holes was placed onto the plate and infested pea seedlings were placed directly on the Parafilm. The infested plate was closed with a gel blotting paper and another plastic stencil and then turned upside down. The samples were assessed for mortality 5 days after infestation.

Euschistus heros = test: Activity against Euschistus heros (neotropical brown stink bug), soybean leaves, N2 nymphs; conditions: 120 h, application rate 200 ppm, 5 days after infestation, read-out: effect in at least one of the two categories (mortality or growth inhibition)
Protocol: Example B3: Activity Against Euschistus heros (Neotropical Brown Stink Bug)
Soybean leaves on agar in 24-well microtiter plates were sprayed with aqueous test solutions prepared from 10′000 ppm DMSO stock solutions. After drying the leaves were infested with N2 nymphs. The samples were assessed for mortality and growth inhibition in comparison to untreated samples 5 days after infestation.

Chilo suppressalis = test: Activity against Chilo suppressalis (striped rice stemborer), artificial diet, L2 larvae; conditions: 144 h, application rate 200 ppm, 6 days after infestation, read-out: control in at least one of the three categories (mortality, anti-feedant effect, or growth inhibition)
Protocol: Example B1: Activity Against Chilo suppressalis (Striped Rice Stemborer)
24-well microtiter plates with artificial diet were treated with aqueous test solutions prepared from 10′000 ppm DMSO stock solutions by pipetting. After drying, the plates were infested with L2 larvae (6-8 per well). The samples were assessed for mortality, anti-feeding effect, and growth inhibition in comparison to untreated samples 6 days after infestation. Control of Chilo suppressalis by a test sample is given when at least one of the categories mortality, anti-feedant effect, and growth inhibition is higher than the untreated sample.

Spodoptera littoralis = test: Activity against Spodoptera littoralis (Egyptian cotton leaf worm), cotton leaf discs, L1 larvae; conditions: foliar, 72 h, application rate 200 ppm, 3 days after infestation, read-out: control in at least one of the three categories (mortality, anti-feedant effect, or growth inhibition)
Protocol: Example B8: Activity Against Spodoptera littoralis (Egyptian Cotton Leaf Worm)
Cotton leaf discs were placed onto agar in 24-well microtiter plates and sprayed with aqueous test solutions prepared from 10′000 ppm DMSO stock solutions. After drying the leaf discs were infested with five L1 larvae. The samples were assessed for mortality, anti-feeding effect, and growth inhibition in comparison to untreated samples 3 days after infestation. Control of Spodoptera littoralis by a test sample is given when at least one of the categories mortality, anti-feedant effect, and growth inhibition is higher than the untreated sample.

Plutella xylostella = test: Activity against Plutella xylostella (diamond back moth), artificial diet, eggs; conditions: 192 h, application rate 200 ppm, 8 days after infestation, read-out: control in at least one of the two categories (mortality or growth inhibition)
Protocol: Example B7: Activity Against Plutella xylostella (Diamond Back Moth)
24-well microtiter plates with artificial diet were treated with aqueous test solutions prepared from 10′000 ppm DMSO stock solutions by pipetting. After drying, Plutella eggs were pipetted through a plastic stencil onto a gel blotting paper and the plate was closed with it. The samples were assessed for mortality and growth inhibition in comparison to untreated samples 8 days after infestation.

C[C@H](NC(=O)c1cc(C(F)(F)F)cc(S(=O)(=O)C(F)(F)F)c1)c1ncnn1-c1ccc(=O)n(C)n1 [P8, N-[(1S)-1-[2-(1-methyl-6-oxo-pyridazin-3-yl)-1,2,4-triazol-3-yl]ethyl]-3-(trifluoromethyl)-5-(trifluoromethylsulfonyl) benzamide]
≥ 80%: mortality at 200 ppm (Myzus persicae [1]) | percent control (mortality or growth inhibition) at 200 ppm (Diabrotica balteata) | mortality at 12 ppm (Myzus persicae [2]) | percent effect (mortality or growth inhibition) at 200 ppm (Euschistus heros) | percent control (mortality, anti-feedant effect or growth inhibition) at 200 ppm (Chilo suppressalis) | percent control (mortality, anti-feedant effect or growth inhibition) at 200 ppm (Spodoptera littoralis) | percent control (mortality or growth inhibition) at 200 ppm (Plutella xylostella)

CC(NC(=O)c1cc(Cl)cc(OC(F)(F)F)c1)c1nccnc1-c1ccc(=O)n(C)n1 (centres unmarked) [P11, 3-chloro-N-[1-[3-(1-methyl-6-oxopyridazin-3-yl)pyrazin-2-yl]ethyl]-5-(trifluoromethoxy) benzamide]
≥ 80%: mortality at 200 ppm (Myzus persicae [1]) | percent control (mortality or growth inhibition) at 200 ppm (Diabrotica balteata) | mortality at 12 ppm (Myzus persicae [2]) | percent effect (mortality or growth inhibition) at 200 ppm (Euschistus heros) | percent control (mortality, anti-feedant effect or growth inhibition) at 200 ppm (Chilo suppressalis) | percent control (mortality, anti-feedant effect or growth inhibition) at 200 ppm (Spodoptera littoralis) | percent control (mortality or growth inhibition) at 200 ppm (Plutella xylostella)

CC(NC(=O)c1cc(OC(F)F)cc(C(F)(F)F)c1)c1nccnc1-c1ccc(=O)n(C)n1 (centres unmarked) [P14, 3-(difluoromethoxy)-N-[1-[3-(1-methyl-6-oxo-pyridazin-3-yl)pyrazin-2-yl]ethyl]-5-(trifluoromethyl)benzamide]
≥ 80%: mortality at 200 ppm (Myzus persicae [1]) | percent control (mortality or growth inhibition) at 200 ppm (Diabrotica balteata) | mortality at 12 ppm (Myzus persicae [2]) | percent effect (mortality or growth inhibition) at 200 ppm (Euschistus heros) | percent control (mortality, anti-feedant effect or growth inhibition) at 200 ppm (Chilo suppressalis) | percent control (mortality, anti-feedant effect or growth inhibition) at 200 ppm (Spodoptera littoralis) | percent control (mortality or growth inhibition) at 200 ppm (Plutella xylostella)

CCn1nc(-n2ncnc2[C@H](C)NC(=O)c2cc(Cl)cc(C(F)(F)F)c2)ccc1=O [P16, 3-chloro-N-[(1S)-1-[2-(1-ethyl-6-oxo-pyridazin-3-yl)-1,2,4-triazol-3-yl]ethy]-5-(trifluoromethyl)benzamide]
≥ 80%: mortality at 200 ppm (Myzus persicae [1]) | percent control (mortality or growth inhibition) at 200 ppm (Diabrotica balteata) | mortality at 12 ppm (Myzus persicae [2]) | percent effect (mortality or growth inhibition) at 200 ppm (Euschistus heros) | percent control (mortality, anti-feedant effect or growth inhibition) at 200 ppm (Chilo suppressalis) | percent control (mortality, anti-feedant effect or growth inhibition) at 200 ppm (Spodoptera littoralis) | percent control (mortality or growth inhibition) at 200 ppm (Plutella xylostella)

C[C@H](NC(=O)c1cc(Cl)cc(S(=O)(=O)C(F)(F)F)c1)c1ncnn1-c1ccc(=O)n(C)n1 [P20, 3-chloro-N-[(1S)-1-[2-(1-methyl-6-oxo-pyridazin-3-yl)-1,2,4-triazol-3-yl]ethyl]-5-(trifluoromethylsulfonyl) benzamide]
≥ 80%: mortality at 200 ppm (Myzus persicae [1]) | percent control (mortality or growth inhibition) at 200 ppm (Diabrotica balteata) | mortality at 12 ppm (Myzus persicae [2]) | percent effect (mortality or growth inhibition) at 200 ppm (Euschistus heros) | percent control (mortality, anti-feedant effect or growth inhibition) at 200 ppm (Chilo suppressalis) | percent control (mortality, anti-feedant effect or growth inhibition) at 200 ppm (Spodoptera littoralis) | percent control (mortality or growth inhibition) at 200 ppm (Plutella xylostella)

C[C@@H](c1ncnn1C1=NN(C)C(=O)CC1)N(C)C(=O)c1cc(Cl)cc(C(F)(F)F)c1 [P23, 3-chloro-N-methyl-N-[(1S)-1-[2-(1-methyl-6-oxo-4,5-dihydropyridazin-3-yl)-1,2,4-triazol-3-yl]ethyl]-5-(trifluoromethyl)benzamide]
≥ 80%: mortality at 200 ppm (Myzus persicae [1]) | percent control (mortality or growth inhibition) at 200 ppm (Diabrotica balteata) | mortality at 12 ppm (Myzus persicae [2]) | percent effect (mortality or growth inhibition) at 200 ppm (Euschistus heros) | percent control (mortality, anti-feedant effect or growth inhibition) at 200 ppm (Chilo suppressalis) | percent control (mortality, anti-feedant effect or growth inhibition) at 200 ppm (Spodoptera littoralis) | percent control (mortality or growth inhibition) at 200 ppm (Plutella xylostella)

C[C@H](NC(=O)c1cc(Cl)cc(OC(F)(F)F)c1)c1ncnn1-c1ccc(=O)n(C)n1 [P26, 3-chloro-N-[(1S)-1-[2-(1-methyl-6-oxo-pyridazin-3-yl)-1,2,4-triazol-3-yl]ethyl]-5-(trifluoromethoxy)benzamide]
≥ 80%: mortality at 200 ppm (Myzus persicae [1]) | percent control (mortality or growth inhibition) at 200 ppm (Diabrotica balteata) | mortality at 12 ppm (Myzus persicae [2]) | percent effect (mortality or growth inhibition) at 200 ppm (Euschistus heros) | percent control (mortality, anti-feedant effect or growth inhibition) at 200 ppm (Chilo suppressalis) | percent control (mortality, anti-feedant effect or growth inhibition) at 200 ppm (Spodoptera littoralis) | percent control (mortality or growth inhibition) at 200 ppm (Plutella xylostella)

C[C@H](NC(=O)c1cc(Cl)cc(Br)c1)c1ncnn1-c1ccc(=O)n(C)n1 [P27, 3-bromo-5-chloro-N-[(1S)-1-[2-(1-methyl-6-oxo-pyridazin-3-yl)-1,2,4-triazol-3-yl]ethyl]benzamide]
≥ 80%: mortality at 200 ppm (Myzus persicae [1]) | percent control (mortality or growth inhibition) at 200 ppm (Diabrotica balteata) | mortality at 12 ppm (Myzus persicae [2]) | percent effect (mortality or growth inhibition) at 200 ppm (Euschistus heros) | percent control (mortality, anti-feedant effect or growth inhibition) at 200 ppm (Chilo suppressalis) | percent control (mortality, anti-feedant effect or growth inhibition) at 200 ppm (Spodoptera littoralis) | percent control (mortality or growth inhibition) at 200 ppm (Plutella xylostella)

C[C@H](NC(=O)c1cc(Cl)cc(I)c1)c1ncnn1-c1ccc(=O)n(C)n1 [P28, 3-chloro-5-iodo-N-[(1S)-1-[2-(1-methyl-6-oxo-pyridazin-3-yl)-1,2,4-triazol-3-yl]ethyl]benzamide]
≥ 80%: mortality at 200 ppm (Myzus persicae [1]) | percent control (mortality or growth inhibition) at 200 ppm (Diabrotica balteata) | mortality at 12 ppm (Myzus persicae [2]) | percent effect (mortality or growth inhibition) at 200 ppm (Euschistus heros) | percent control (mortality, anti-feedant effect or growth inhibition) at 200 ppm (Chilo suppressalis) | percent control (mortality, anti-feedant effect or growth inhibition) at 200 ppm (Spodoptera littoralis) | percent control (mortality or growth inhibition) at 200 ppm (Plutella xylostella)

C[C@H](NC(=O)c1cc(Br)cc(Br)c1)c1ncnn1-c1ccc(=O)n(C)n1 [P29, 3,5-dibromo-N-[(1S)-1-[2-(1-methyl-6-oxo-pyridazin-3-yl)-1,2,4-triazol-3-yl]ethyl]benzamide]
≥ 80%: mortality at 200 ppm (Myzus persicae [1]) | percent control (mortality or growth inhibition) at 200 ppm (Diabrotica balteata) | mortality at 12 ppm (Myzus persicae [2]) | percent effect (mortality or growth inhibition) at 200 ppm (Euschistus heros) | percent control (mortality, anti-feedant effect or growth inhibition) at 200 ppm (Chilo suppressalis) | percent control (mortality, anti-feedant effect or growth inhibition) at 200 ppm (Spodoptera littoralis) | percent control (mortality or growth inhibition) at 200 ppm (Plutella xylostella)

C[C@H](NC(=O)c1cc(Br)cc(I)c1)c1ncnn1-c1ccc(=O)n(C)n1 [P30, 3-bromo-5-iodo-N-[(1S)-1-[2-(1-methyl-6-oxo-pyridazin-3-yl)-1,2,4-triazol-3-yl]ethyl]benzamide]
≥ 80%: mortality at 200 ppm (Myzus persicae [1]) | percent control (mortality or growth inhibition) at 200 ppm (Diabrotica balteata) | mortality at 12 ppm (Myzus persicae [2]) | percent effect (mortality or growth inhibition) at 200 ppm (Euschistus heros) | percent control (mortality, anti-feedant effect or growth inhibition) at 200 ppm (Chilo suppressalis) | percent control (mortality, anti-feedant effect or growth inhibition) at 200 ppm (Spodoptera littoralis) | percent control (mortality or growth inhibition) at 200 ppm (Plutella xylostella)
